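GI50 is the concentration that inhibits growth by half. TGI: concentration producing complete growth inhibition.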
Tests used:
Assay in all cases: DTP human tumour cell line panel, 384-well format
MALME-3M melanoma = system: MALME-3M melanoma
LOX IMVI melanoma = system: LOX IMVI melanoma
A549 NSCLC = system: A549 NSCLC
SK-MEL-28 melanoma = system: SK-MEL-28 melanoma
K-562 leukemia = system: K-562 leukemia
NCI-H522 lung = system: NCI-H522 lung
SNB-19 CNS = system: SNB-19 CNS
SN12C renal = system: SN12C renal
BT-549 breast = system: BT-549 breast
PC-3 prostate = system: PC-3 prostate
KM12 colon = system: KM12 colon
NCI-H322M lung = system: NCI-H322M lung
SW-620 colon = system: SW-620 colon
OVCAR-3 ovarian = system: OVCAR-3 ovarian
UO-31 renal = system: UO-31 renal
TK-10 renal = system: TK-10 renal
U251 glioblastoma = system: U251 glioblastoma
MDA-MB-231 breast = system: MDA-MB-231 breast
HOP-62 NSCLC = system: HOP-62 NSCLC
HCC-2998 colon = system: HCC-2998 colon
COLO 205 colon = system: COLO 205 colon
CCRF-CEM leukemia = system: CCRF-CEM leukemia
UACC-62 melanoma = system: UACC-62 melanoma
EKVX NSCLC = system: EKVX NSCLC
HOP-92 NSCLC = system: HOP-92 NSCLC
MDA-MB-435 melanoma = system: MDA-MB-435 melanoma
SR leukemia = system: SR leukemia
SK-OV-3 ovarian = system: SK-OV-3 ovarian
MOLT-4 leukemia = system: MOLT-4 leukemia
SF-295 CNS = system: SF-295 CNS
HCT-15 colon = system: HCT-15 colon
MCF7 breast = system: MCF7 breast
A498 renal = system: A498 renal
RPMI-8226 leukemia = system: RPMI-8226 leukemia
HL-60(TB) leukemia = system: HL-60(TB) leukemia
OVCAR-8 ovarian = system: OVCAR-8 ovarian
MDA-MB-468 breast = system: MDA-MB-468 breast
SK-MEL-5 melanoma = system: SK-MEL-5 melanoma
NCI-H226 lung = system: NCI-H226 lung
CAKI-1 renal = system: CAKI-1 renal
HT29 colon = system: HT29 colon
T-47D breast = system: T-47D breast
ACHN renal = system: ACHN renal
NCI/ADR-RES ovarian = system: NCI/ADR-RES ovarian
OVCAR-4 ovarian = system: OVCAR-4 ovarian
DU-145 prostate = system: DU-145 prostate
NCI-H23 lung = system: NCI-H23 lung
UACC-257 melanoma = system: UACC-257 melanoma
HCT-116 colon = system: HCT-116 colon
M14 melanoma = system: M14 melanoma
786-0 renal = system: 786-0 renal
SF-539 CNS = system: SF-539 CNS
RXF 393 renal = system: RXF 393 renal
SF-268 CNS = system: SF-268 CNS
IGROV1 ovarian = system: IGROV1 ovarian
HS 578T breast = system: HS 578T breast
SNB-75 CNS = system: SNB-75 CNS
NCI-H460 NSCLC = system: NCI-H460 NSCLC

Structure (SMILES): COCC(=O)NC/C=C/c1ccc2ncnc(Nc3ccc(Oc4ccc(C)nc4)c(C)c3)c2c1
- GI50 (MALME-3M melanoma): 14.3 µM
- TGI (MALME-3M melanoma): 27.4 µM
- GI50 (LOX IMVI melanoma): 12 µM
- TGI (LOX IMVI melanoma): 24.6 µM
- GI50 (A549 NSCLC): 11.5 µM
- TGI (A549 NSCLC): 23.9 µM
- GI50 (SK-MEL-28 melanoma): 17.1 µM
- TGI (SK-MEL-28 melanoma): 31.1 µM
- GI50 (K-562 leukemia): 5.45 µM
- TGI (K-562 leukemia): 18.2 µM
- GI50 (NCI-H522 lung): 1.29 µM
- TGI (NCI-H522 lung): 17.3 µM
- GI50 (SNB-19 CNS): 15.2 µM
- TGI (SNB-19 CNS): 28.9 µM
- GI50 (SN12C renal): 11.6 µM
- TGI (SN12C renal): 26.5 µM
- GI50 (BT-549 breast): 13.7 µM
- TGI (BT-549 breast): 26.8 µM
- GI50 (PC-3 prostate): 13.9 µM
- TGI (PC-3 prostate): 28.3 µM
- GI50 (KM12 colon): 15.8 µM
- TGI (KM12 colon): 29.8 µM
- GI50 (NCI-H322M lung): 10.7 µM
- TGI (NCI-H322M lung): 25.8 µM
- GI50 (SW-620 colon): 11.1 µM
- TGI (SW-620 colon): 23.2 µM
- GI50 (OVCAR-3 ovarian): 14.3 µM
- TGI (OVCAR-3 ovarian): 27.8 µM
- GI50 (UO-31 renal): 12.6 µM
- TGI (UO-31 renal): 25.6 µM
- GI50 (TK-10 renal): 12 µM
- TGI (TK-10 renal): 24.7 µM
- GI50 (U251 glioblastoma): 15 µM
- TGI (U251 glioblastoma): 28.4 µM
- GI50 (MDA-MB-231 breast): 10.7 µM
- TGI (MDA-MB-231 breast): 23.3 µM
- GI50 (HOP-62 NSCLC): 15.4 µM
- TGI (HOP-62 NSCLC): 29.6 µM
- GI50 (HCC-2998 colon): 17.5 µM
- TGI (HCC-2998 colon): 31.4 µM
- GI50 (COLO 205 colon): 12.3 µM
- TGI (COLO 205 colon): 24.8 µM
- GI50 (CCRF-CEM leukemia): 2.86 µM
- TGI (CCRF-CEM leukemia): 7.8 µM
- GI50 (UACC-62 melanoma): 14.9 µM
- TGI (UACC-62 melanoma): 28.2 µM
- GI50 (EKVX NSCLC): 9.72 µM
- TGI (EKVX NSCLC): 22.6 µM
- GI50 (HOP-92 NSCLC): 13.4 µM
- TGI (HOP-92 NSCLC): 26.4 µM
- GI50 (MDA-MB-435 melanoma): 15.6 µM
- TGI (MDA-MB-435 melanoma): 29.1 µM
- GI50 (SR leukemia): 4.1 µM
- TGI (SR leukemia): 8.2 µM
- GI50 (SK-OV-3 ovarian): 11.3 µM
- TGI (SK-OV-3 ovarian): 23.5 µM
- GI50 (MOLT-4 leukemia): 6.77 µM
- TGI (MOLT-4 leukemia): 18.8 µM
- GI50 (SF-295 CNS): 14 µM
- TGI (SF-295 CNS): 27.3 µM
- GI50 (HCT-15 colon): 13 µM
- TGI (HCT-15 colon): 26.4 µM
- GI50 (MCF7 breast): 4.11 µM
- TGI (MCF7 breast): 14.7 µM
- GI50 (A498 renal): 14.3 µM
- TGI (A498 renal): 27.6 µM
- GI50 (RPMI-8226 leukemia): 4.48 µM
- TGI (RPMI-8226 leukemia): 15.3 µM
- GI50 (HL-60(TB) leukemia): 3.53 µM
- TGI (HL-60(TB) leukemia): 10.3 µM
- GI50 (OVCAR-8 ovarian): 3.59 µM
- TGI (OVCAR-8 ovarian): 13.1 µM
- GI50 (MDA-MB-468 breast): 2.19 µM
- TGI (MDA-MB-468 breast): 6.66 µM
- GI50 (SK-MEL-5 melanoma): 3.38 µM
- TGI (SK-MEL-5 melanoma): 13.6 µM
- GI50 (NCI-H226 lung): 16.4 µM
- TGI (NCI-H226 lung): 31.9 µM
- GI50 (CAKI-1 renal): 10.9 µM
- TGI (CAKI-1 renal): 23.6 µM
- GI50 (HT29 colon): 15.1 µM
- TGI (HT29 colon): 28.5 µM
- GI50 (T-47D breast): 4.62 µM
- TGI (T-47D breast): 17.6 µM
- GI50 (ACHN renal): 12.1 µM
- TGI (ACHN renal): 29.1 µM
- GI50 (NCI/ADR-RES ovarian): 15 µM
- TGI (NCI/ADR-RES ovarian): 29.6 µM
- GI50 (OVCAR-4 ovarian): 13.3 µM
- TGI (OVCAR-4 ovarian): 26.3 µM
- GI50 (DU-145 prostate): 12.9 µM
- TGI (DU-145 prostate): 29.3 µM
- GI50 (NCI-H23 lung): 15.1 µM
- TGI (NCI-H23 lung): 28.8 µM
- GI50 (UACC-257 melanoma): 14.9 µM
- TGI (UACC-257 melanoma): 28.3 µM
- GI50 (HCT-116 colon): 14.2 µM
- TGI (HCT-116 colon): 27.5 µM
- GI50 (M14 melanoma): 17.1 µM
- TGI (M14 melanoma): 30.9 µM
- GI50 ([…]-0 renal): 16 µM
- TGI (786-0 renal): 29.6 µM
- GI50 (SF-539 CNS): 2.66 µM
- TGI (SF-539 CNS): 6.57 µM
- GI50 (RXF 393 renal): 10.7 µM
- TGI (RXF 393 renal): 22.7 µM
- GI50 (SF-268 CNS): 16.7 µM
- TGI (SF-268 CNS): 31 µM
- GI50 (IGROV1 ovarian): 11.7 µM
- TGI (IGROV1 ovarian): 24.5 µM
- GI50 (HS 578T breast): 11.9 µM
- TGI (HS 578T breast): 24.2 µM
- GI50 (SNB-75 CNS): 15.9 µM
- TGI (SNB-75 CNS): 29.6 µM
- GI50 (NCI-H460 NSCLC): 4.25 µM
- TGI (NCI-H460 NSCLC): 13.2 µM

— PubChem BioAssay (NCI)
